Assay results taken from ChEMBL document CHEMBL2016525, “Discovery of a novel acetylcholinesterase inhibitor by structure-based virtual screening techniques” (Bioorg Med Chem Lett, 2012).

Experiments:
Acetylcholinesterase = Acetylcholinesterase (Electrophorus electricus, UniProt O42275); experiment: (§1) Inhibition of electric eel AChE by Ellman's method
[1] = Lipophilicity, log D of the compound; assay type: physicochemical; details: octanol/water
[2] = target: Acetylcholinesterase (Electrophorus electricus) (UniProt O42275); experiment: as §1
Sequence of Acetylcholinesterase (Electrophorus electricus) (O42275 24-633 limits assumed): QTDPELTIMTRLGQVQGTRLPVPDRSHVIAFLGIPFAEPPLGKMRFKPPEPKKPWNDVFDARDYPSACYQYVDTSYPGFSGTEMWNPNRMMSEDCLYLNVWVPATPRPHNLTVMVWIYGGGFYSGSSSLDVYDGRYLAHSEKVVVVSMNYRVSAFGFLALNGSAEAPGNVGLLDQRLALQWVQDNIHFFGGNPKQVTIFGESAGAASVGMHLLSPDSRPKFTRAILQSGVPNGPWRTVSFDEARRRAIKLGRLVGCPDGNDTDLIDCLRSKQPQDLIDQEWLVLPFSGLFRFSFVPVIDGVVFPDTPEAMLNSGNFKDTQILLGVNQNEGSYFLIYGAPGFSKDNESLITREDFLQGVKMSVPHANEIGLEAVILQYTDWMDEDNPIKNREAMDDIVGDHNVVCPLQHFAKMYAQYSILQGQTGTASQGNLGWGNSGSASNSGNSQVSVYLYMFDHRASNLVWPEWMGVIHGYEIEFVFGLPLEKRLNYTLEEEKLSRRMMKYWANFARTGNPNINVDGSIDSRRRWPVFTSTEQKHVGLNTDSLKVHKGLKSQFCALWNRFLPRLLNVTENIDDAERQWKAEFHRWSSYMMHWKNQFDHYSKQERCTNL

Sequence of Acetylcholinesterase (O42275 whole entry): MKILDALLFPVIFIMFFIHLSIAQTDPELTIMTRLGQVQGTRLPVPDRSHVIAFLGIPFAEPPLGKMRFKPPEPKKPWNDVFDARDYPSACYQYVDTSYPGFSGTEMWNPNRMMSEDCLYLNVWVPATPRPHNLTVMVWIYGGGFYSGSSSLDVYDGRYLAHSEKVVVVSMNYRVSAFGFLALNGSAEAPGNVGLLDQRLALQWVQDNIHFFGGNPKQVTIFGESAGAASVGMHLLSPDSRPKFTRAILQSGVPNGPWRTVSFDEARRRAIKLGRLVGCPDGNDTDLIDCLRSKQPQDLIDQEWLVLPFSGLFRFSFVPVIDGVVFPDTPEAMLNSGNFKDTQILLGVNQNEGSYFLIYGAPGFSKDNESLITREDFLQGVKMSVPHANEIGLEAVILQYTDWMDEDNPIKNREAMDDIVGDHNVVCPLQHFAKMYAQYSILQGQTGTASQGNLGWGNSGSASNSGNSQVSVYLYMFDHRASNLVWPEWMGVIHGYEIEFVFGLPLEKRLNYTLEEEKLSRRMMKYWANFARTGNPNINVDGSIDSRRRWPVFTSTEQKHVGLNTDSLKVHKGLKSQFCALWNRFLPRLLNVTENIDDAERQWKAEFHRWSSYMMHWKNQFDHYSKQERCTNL

| Structure (SMILES) | IC50 (Acetylcholinesterase) [µM] | logD [1] | inhibition [2] |
| --- | --- | --- | --- |
| COc1cc(/C=N/NC(=O)CSc2nnc(-c3ccc(OC)c(OC)c3)n2-c2ccccc2)ccc1O | > 100 | 4.4 | – |
| COc1cc(/C=N/NC(=O)c2ccc(COc3cccc(Cl)c3)o2)cc(Br)c1O | 9.8 | 4.86 | – |
| C=CCn1c(SCCCC(=O)Nc2ccc(S(N)(=O)=O)cc2)nc2sc3c(c2c1=O)CCCC3 | 2.5 | 3.93 | Dose-dependent effect |
| COc1ccc(NC(=O)c2ccc(NS(=O)(=O)c3cc4c5c(cccc5c3)C(=O)N4)cc2)cc1 | > 100 | 2.95 | – |
| C=CCn1c2ccccc2c2nnc(SCC(=O)Nc3ccc(S(N)(=O)=O)cc3)nc21 | 6.5 | 1.34 | Dose-dependent effect |
| CC1CCc2c(sc3nc(SCC(=O)Nc4ccc(S(N)(=O)=O)cc4)n(N)c(=O)c23)C1 (configuration not stated) | 5.9 | 2.3 | Dose-dependent effect |
| O=C1Nc2cc(S(=O)(=O)Nc3ccc(Oc4ccccc4)cc3)cc3cccc1c23 | 9.9 | 3.74 | – |
| C=C(C)COc1cc(C)cc2oc(=O)c(CC(=O)NCc3ccc(S(N)(=O)=O)cc3)c(C)c12 | 12.3 | 3.4 | – |
| Cc1cccc(OCC(=O)Nc2cccc(Oc3ccc4c(c3)C(=O)NC4=O)c2)c1C | 14.9 | 3.81 | – |
| CCOc1cc(C(=O)NNC(=S)Nc2ccc(S(N)(=O)=O)cc2)cc(OCC)c1OCC | 4.8 | 2.65 | Dose-dependent effect |
| CCNS(=O)(=O)c1ccc(NC(=O)c2ccc(Cn3nc(C)cc3C)o2)cc1 | 1.5 | 2.01 | Dose-dependent effect |
| CCOc1cc(/C=N/NC(=O)c2cc(-c3cccc(OC)c3)n[nH]2)ccc1O | 7.8 | 3.44 | – |
| O=C1Nc2ccccc2/C1=N/NC(=O)c1ccc(Nc2nc(-c3ccccc3)cs2)cc1 | 9.5 | 4.26 | – |
| COc1cc(/C=C/C(=O)NCCCCNc2c3c(nc4ccccc24)CCCC3)ccc1O | – | 5.33 | – |
| COc1cc(/C=N/NC(=O)c2ccc(COc3c(F)c(F)c(F)c(F)c3F)cc2)ccc1O | 6.7 | 5.02 | – |
| COc1cc(/C=C/C(=O)NCCCCCNc2c3c(nc4ccccc24)CCCC3)ccc1O | – | 5.78 | – |
| CC(=O)Nc1ccc(-c2nnc(SCC(=O)Nc3ccc(Br)cc3Cl)n2C)cc1 | 10.5 | 3.61 | – |
